Experimental data as given in patent publication US9815826B2, “Crystal of azole benzene derivative” (TEIJIN PHARMA LIMITED, priority 2014, dated 2017).

Columns and labels:
[1] = target: T1, oxidase-type and dehydrogenase-type xanthine oxidoreductase (XOR activity) (Rattus norvegicus, UniProt P22985); experiment: Prolonged inhibitory effect on tissue XOR activity (pterin-based assay with methylene blue after oral dosing); assay type: in vivo, Sprague-Dawley male rats; details: for XOR activity inhibition compared to the control animal: 27 hours after drug administration; for XOR inhibitory activity, % of inhibition (vs. vehicle): 24 hours after administration
T1 construct: frozen tissues were homogenized with potassium phosphate buffer; from tissue; host or cells: rat liver, kidney, vessel homogenate supernatants and plasma (ex vivo after oral dosing)
T1 sequence (P22985 whole entry): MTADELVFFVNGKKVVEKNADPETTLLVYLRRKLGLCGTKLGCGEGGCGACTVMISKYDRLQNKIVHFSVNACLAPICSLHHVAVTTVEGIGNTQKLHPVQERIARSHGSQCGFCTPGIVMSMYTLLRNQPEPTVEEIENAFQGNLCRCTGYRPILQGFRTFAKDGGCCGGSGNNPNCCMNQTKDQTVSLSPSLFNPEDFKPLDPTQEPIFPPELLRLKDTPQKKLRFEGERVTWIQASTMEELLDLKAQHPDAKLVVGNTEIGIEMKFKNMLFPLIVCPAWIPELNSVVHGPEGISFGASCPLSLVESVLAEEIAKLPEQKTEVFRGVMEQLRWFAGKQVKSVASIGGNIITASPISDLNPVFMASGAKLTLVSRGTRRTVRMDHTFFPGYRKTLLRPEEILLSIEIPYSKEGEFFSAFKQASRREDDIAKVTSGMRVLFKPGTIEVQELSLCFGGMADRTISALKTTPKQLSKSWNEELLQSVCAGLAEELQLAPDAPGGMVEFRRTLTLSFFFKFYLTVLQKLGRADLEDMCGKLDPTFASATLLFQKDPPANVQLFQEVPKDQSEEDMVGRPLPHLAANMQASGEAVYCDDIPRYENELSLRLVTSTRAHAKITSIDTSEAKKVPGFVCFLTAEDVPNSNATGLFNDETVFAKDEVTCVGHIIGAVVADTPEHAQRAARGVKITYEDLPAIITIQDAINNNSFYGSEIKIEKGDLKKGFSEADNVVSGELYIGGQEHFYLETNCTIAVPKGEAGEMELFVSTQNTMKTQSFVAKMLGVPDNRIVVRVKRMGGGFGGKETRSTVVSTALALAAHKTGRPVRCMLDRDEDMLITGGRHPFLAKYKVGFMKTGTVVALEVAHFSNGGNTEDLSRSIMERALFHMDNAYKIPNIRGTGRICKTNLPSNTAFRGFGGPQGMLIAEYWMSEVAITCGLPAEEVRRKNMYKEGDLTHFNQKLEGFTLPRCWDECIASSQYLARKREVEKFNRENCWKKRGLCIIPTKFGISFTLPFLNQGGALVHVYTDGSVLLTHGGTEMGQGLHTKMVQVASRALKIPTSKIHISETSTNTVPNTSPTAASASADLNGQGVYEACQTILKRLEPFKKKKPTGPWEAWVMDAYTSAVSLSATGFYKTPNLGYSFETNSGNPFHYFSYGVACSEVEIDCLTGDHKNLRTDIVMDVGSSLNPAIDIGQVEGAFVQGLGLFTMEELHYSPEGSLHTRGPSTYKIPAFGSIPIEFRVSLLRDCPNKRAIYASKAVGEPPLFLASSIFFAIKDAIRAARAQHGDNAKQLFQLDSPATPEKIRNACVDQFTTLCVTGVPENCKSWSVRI
Excerpt: (§1) For “xanthine oxidase” in the present invention, as far as this example, oxidative reaction catalyzing activities which are brought by oxidase-type xanthine oxidoreductase solely and by both oxidase-type and dehydrogenase-type xanthine oxidoreductase are distinguished. The former is “XO activity” and the latter is “XOR activity”. In “tissue XO activity”, “plasma XO activity”, “tissue XOR activity inhibition”, “tissue XOR activity inhibition” and the like, “XO activity” and “XOR activity” have the same meanings as defined above. The tissue includes liver, kidney and vessel. In addition, percentage of XO activity inhibition and that of […] in same sample are thought to be similar, according to the results below.
(§2) The inhibitory effect of tissue XO activity, tissue XOR activity and plasma XO activity was confirmed for 2-[4-(2,2-dimethylpropoxy)-3-(1H-1,2,3,4-tetrazol-1-yl)phenyl]-4-methyl-1,3-thiazole-5-carboxylic acid. A test compound suspended in a 0.5% methylcellulose solution was forcedly administered to 7 to 9 week-old Sprague-Dawley male rats (Japan Charles River Co.) by oral gavage administration using a feeding needle. The blood was collected from the abdominal vein and tissue was collected at 24 or 27 hours after administration. Plasma sample was prepared by centrifugation.
(§3) The tissue XO activity, the tissue XOR activity and the plasma XO activity were measured by the pterin-based assay which utilizes the reaction that pterin is oxidized by each type of xanthine oxidoreductase to produce fluorescent isoxanthopterin. In brief, frozen tissues were homogenized with potassium phosphate buffer, pH 7.4, containing 1 mM ethylenediaminetetraacetic acid (EDTA) and protease inhibitors to prepare tissue concentration as follow (liver: 25 mg/mL, kidney: 25 mg/mL, vessel: 30 mg/mL). Then the homogenates were centrifuged 12,000 rpm for 15 min at 4° C. When measured XO activity, the supernatant of tissue and plasma were respectively co-incubated with 50 μM pterin solution at 37° C. When measured XOR activity, the supernatant of tissue homogenate was co-incubated with 50 μM pterin and 50 μM methylene blue solution at 37° C. As a control, oxidase-type xanthine oxidoreductase (from buttermilk, manufactured by Calbiochem Novabiochem Corp.) was also incubated with pterin solution in the same manner. XO activity and XOR activity of the samples were determined from fluorescence intensity which normalized by the intensity value of control and protein concentration.
(§4) The percentage of XO activity inhibition and XOR activity inhibition were determined by the following expression: Percentage of XO or XOR activity inhibition (%)=(XO or XOR activity of the control animal−XO or XOR activity of the test compound-administered animal)×100/XO or XOR activity of the control animal.

[2] = system: level of uric acid in the plasma; experiment: Hypouricemic effect (oxonic acid-induced hyperuricemic beagle dogs); assay type: in vivo, beagle dog; details: oral, 10 mg/kg, 8 hours after administration
Procedure: The hypouricemic effect of 2-[4-(2,2-dimethylpropoxy)-3-(1H-1,2,3,4-tetrazol-1-yl)phenyl]-4-methyl-1,3-thiazole-5-carboxylic acid in oxonic acid-induced hyperuricmic beagle dog was confirmed. A test compound suspended in a 0.5% methylcellulose solution was administered to beagle dog (Kitayama labes) by oral gavage administration. Potassium oxonate (50 mg/kg) was subcutaneously administrated before and 4 hours after compound administration. After the blood was collected from the cephalic vein at 8 hours after administration, the plasma was separated. The level of uric acid in the plasma sample was measured by LC-MS/MS method and the percentage of hypouricemic effect was determined by the following expression: Percentage of hypouricemic effect (%)=(Level of uric acid of the control animal−Level of uric acid of the test compound-administered animal)×100/Level of uric acid of the control animal.

[3] = target: T2, oxidase-type xanthine oxidoreductase (from buttermilk) (Bos taurus, UniProt P80457); experiment: Measurement of xanthine oxidase inhibitory activity; assay type: biochemical; details: xanthine substrate, absorbance 290 nm
T2 construct: purchased Calbiochem Novabiochem Corp; host or cells: natural source: buttermilk
T2 sequence (P80457 whole entry): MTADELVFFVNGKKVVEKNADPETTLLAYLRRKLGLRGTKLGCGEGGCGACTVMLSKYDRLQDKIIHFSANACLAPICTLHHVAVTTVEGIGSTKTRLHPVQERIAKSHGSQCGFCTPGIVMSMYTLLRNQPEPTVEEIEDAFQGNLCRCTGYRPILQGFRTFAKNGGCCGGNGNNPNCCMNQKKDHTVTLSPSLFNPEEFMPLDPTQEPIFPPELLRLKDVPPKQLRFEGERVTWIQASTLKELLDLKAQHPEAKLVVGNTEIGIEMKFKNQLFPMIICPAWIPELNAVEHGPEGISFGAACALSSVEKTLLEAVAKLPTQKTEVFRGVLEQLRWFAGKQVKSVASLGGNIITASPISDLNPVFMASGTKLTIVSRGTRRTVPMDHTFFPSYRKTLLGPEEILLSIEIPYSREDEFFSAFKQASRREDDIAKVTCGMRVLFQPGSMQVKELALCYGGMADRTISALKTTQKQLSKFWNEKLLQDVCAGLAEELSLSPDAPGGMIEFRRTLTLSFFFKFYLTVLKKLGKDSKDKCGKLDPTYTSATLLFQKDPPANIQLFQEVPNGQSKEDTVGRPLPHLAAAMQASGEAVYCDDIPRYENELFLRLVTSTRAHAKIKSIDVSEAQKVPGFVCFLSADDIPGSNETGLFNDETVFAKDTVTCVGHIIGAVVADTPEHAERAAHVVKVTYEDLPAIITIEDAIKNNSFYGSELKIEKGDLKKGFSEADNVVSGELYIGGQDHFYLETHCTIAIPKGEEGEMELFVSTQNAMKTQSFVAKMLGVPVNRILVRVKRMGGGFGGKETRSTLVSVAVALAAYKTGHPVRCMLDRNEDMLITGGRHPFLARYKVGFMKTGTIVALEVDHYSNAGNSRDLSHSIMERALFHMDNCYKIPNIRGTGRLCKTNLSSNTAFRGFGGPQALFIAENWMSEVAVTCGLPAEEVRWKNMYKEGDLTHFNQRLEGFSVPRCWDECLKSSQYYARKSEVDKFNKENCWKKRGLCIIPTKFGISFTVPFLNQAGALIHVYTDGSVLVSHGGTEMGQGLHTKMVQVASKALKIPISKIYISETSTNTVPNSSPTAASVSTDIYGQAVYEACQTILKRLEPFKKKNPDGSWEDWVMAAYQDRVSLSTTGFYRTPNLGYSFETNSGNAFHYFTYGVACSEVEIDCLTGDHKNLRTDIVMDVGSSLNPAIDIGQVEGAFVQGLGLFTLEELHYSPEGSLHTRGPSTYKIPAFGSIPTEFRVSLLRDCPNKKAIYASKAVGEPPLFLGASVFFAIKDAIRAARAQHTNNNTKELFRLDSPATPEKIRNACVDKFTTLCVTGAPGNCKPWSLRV
Procedure: After dissolving 2-[4-(2,2-dimethylpropoxy)-3-(1H-1,2,3,4-tetrazol-1-yl)phenyl]-4-methyl-1,3-thiazole-5-carboxylic acid in DMSO (produced by Sigma Corporation) so that the concentration is 20 mM, the solution was used by adjusting the concentration to a desired value for the purpose during use.
The evaluation of the xanthine oxidase inhibitory activity of 2-[4-(2,2-dimethylpropoxy)-3-(1H-1,2,3,4-tetrazol-1-yl)phenyl]-4-methyl-1,3-thiazole-5-carboxylic acid was conducted by the method described in the refference (Method Enzymatic Analysis, 1, 521-522, 1974) with partial modification. This evaluation was carried out by measuring oxidase-type xanthine oxidoreductase acrivity. […] After mixing the plate, absorbance at 290 nm was measured by a microplate reader SPECTRA MAX Plus 384 (manufactured by Molecular Devices, LLC). […] Immediately after mixing, the change of absorbance at 290 nm was measured for 5 minutes. The enzyme activity of DMSO solution without test compound was used as 100% control, and the inhibitory rate of the test compound was calculated. Fifty percent inhibitory concentration of the test compound on the oxidase-type xanthine oxidoreductase activity was calculated by fitting to the dose-response curve.

[4] = system: level of uric acid in the blood; experiment: Hypouricemic effect (normal rats), 2 hours after administration; assay type: in vivo, Sprague-Dawley male rats; details: oral
Procedure: The hypouricemic effect was confirmed for 2-[4-(2,2-dimethylpropoxy)-3-(1H-1,2,3,4-tetrazol-1-yl)phenyl]-4-methyl-1,3-thiazole-5-carboxylic acid. A test compound suspended in a 0.5% methylcellulose solution was forcibly administered to 8 to 9 week-old Sprague-Dawley male rats (Japan Charles River Co.) by oral gavage administration using a feeding needle. After the blood was collected from the tail vein at 2 hours after administration, the plasma was separated. The level of uric acid in the blood sample was measured by uricase method using an absorption spectrometer as well as a uric acid determination kit (L type Wako UA F: Wako Pure Chemical Industries, Ltd.). The percentage of hypouricemic effect was determined by the following expression: Percentage of hypouricemic effect (%)=(Level of uric acid of the control animal−Level of uric acid of the test compound-administered animal)×100/Level of uric acid of the control animal.

[5] = target: T3, oxidase-type xanthine oxidoreductase (XO activity) (Rattus norvegicus, UniProt P22985); experiment: Prolonged inhibitory effect on tissue and plasma XO activity (pterin-based assay after oral dosing); assay type: in vivo, Sprague-Dawley male rats; details: about 27 hours after administration
T3 construct: frozen tissues were homogenized with potassium phosphate buffer; from tissue; host or cells: rat liver, kidney, vessel homogenate supernatants and plasma (ex vivo after oral dosing)
T3 sequence (P22985 whole entry): as the sequence (P22985 whole entry) above
Excerpt: as §1, §2, §3, §4

[6] = system: level of uric acid in the blood; experiment: Prolonged hypouricemic effect (normal rats), 24 hours after administration; assay type: in vivo, Sprague-Dawley male rats; details: oral
Procedure: 2-[4-(2,2-dimethylpropoxy)-3-(1H-1,2,3,4-tetrazol-1-yl)phenyl]-4-methyl-1,3-thiazole-5-carboxylic acid was administered to Sprague-Dawley male rats in the same manner as in Reference Example 4. After the blood was collected from the tail vein 24 hours after administration, the plasma was separated. The level of uric acid in the blood was measured by an uricase method using an absorption spectrometer and a uric acid determination kit (L type Wako UA F: Wako Pure Chemical Industries, Ltd.). The percentage of hypouricemic effect was determined by the following expression: Percentage of hypouricemic effect (%)=(Level of uric acid of the control animal−Level of uric acid of the test compound-administered animal)×100/Level of uric acid of the control animal.

XOR activity inhibition compared to the control animal ([1]; rat kidney, 1 mg/kg oral): ≥ 60%
XOR inhibitory activity, % of inhibition (vs. vehicle) ([1]; rat liver, 1 mg/kg oral, 1 mg/kg): ≧80%
XOR inhibitory activity, % of inhibition (vs. vehicle) ([1]; rat liver, 1 mg/kg oral, listed as present compound, 1 mg/kg): ≥ 80%
XOR activity inhibition compared to the control animal ([1]; rat liver, 1 mg/kg oral): ≥ 80%
XOR inhibitory activity, % of inhibition (vs. vehicle) ([1]; rat vessel, 1 mg/kg oral, 1 mg/kg): ≧30%
XOR inhibitory activity, % of inhibition (vs. vehicle) ([1]; rat vessel, 1 mg/kg oral, listed as present compound, 1 mg/kg): ≥ 30%
XOR inhibitory activity, % of inhibition (vs. vehicle) ([1]; rat vessel, 10 mg/kg oral, 10 mg/kg): ≧50%
XOR inhibitory activity, % of inhibition (vs. vehicle) ([1]; rat vessel, 10 mg/kg oral, listed as present compound, 10 mg/kg): ≥ 50%
IC50 [3]: 1 to 5 nM
XO inhibitory activity, % of inhibition (vs. vehicle) ([5]; rat kidney, 1 mg/kg oral): ≧60%
XO inhibitory activity, % of inhibition (vs. vehicle) ([5]; rat kidney, 10 mg/kg oral, 10 mg/kg): ≧70%
XO inhibitory activity, % of inhibition (vs. vehicle) ([5]; rat kidney, 10 mg/kg oral, listed as present compound, 10 mg/kg): ≥ 70%
XO inhibitory activity, % of inhibition (vs. vehicle) ([5]; rat liver, 1 mg/kg oral): ≧80%
XO inhibitory activity, % of inhibition (vs. vehicle) ([5]; rat plasma, 1 mg/kg oral, 1 mg/kg): ≧25%
XO inhibitory activity, % of inhibition (vs. vehicle) ([5]; rat plasma, 1 mg/kg oral, listed as present compound, 1 mg/kg): ≥ 25%
XO inhibitory activity, % of inhibition (vs. vehicle) ([5]; rat plasma, 10 mg/kg oral, 10 mg/kg): ≧40%
XO inhibitory activity, % of inhibition (vs. vehicle) ([5]; rat plasma, 10 mg/kg oral, listed as present compound, 10 mg/kg): ≥ 40%
Structure (SMILES): Cc1nc(-c2ccc(OCC(C)(C)C)c(-n3cnnn3)c2)sc1C(=O)O [2-[4-(2,2-dimethylpropoxy)-3-(1H-1,2,3,4-tetrazol-1-yl)phenyl]-4-methyl-1,3-thiazole-5-carboxylic acid]
Percentage of hypouricemic effect [2]: ≥ 80%
Percentage of hypouricemic effect ([4]; 1 mg/kg): ≥ 50%
Percentage of hypouricemic effect ([4]; 10 mg/kg): ≥ 50%
Percentage of hypouricemic effect ([6]; 3 mg/kg): ≥ 40%
Percentage of hypouricemic effect ([6]; 10 mg/kg): ≥ 50%
